Laboratory results from ChEMBL document CHEMBL1125121, “Synthesis and activity of a potent N-methyl-D-aspartic acid agonist, trans-1-aminocyclobutane-1,3-dicarboxylic acid, and related phosphonic and carboxylic acids” (J Med Chem, 1990).
Calls of active or inactive are those of the source. The calls are words filed in the database; no cut-off is given here.

Legend:
Assay type in all cases: functional
[1] = biological target: T1, Glutamate receptor ionotropic, AMPA (Rattus norvegicus) (UniProt P19491+P19492+P19493+P19490); test: Antagonistic activity against 5 uM of quis/AMPA at the concentration of 100 uM; set-up: scale not given: the % may be the effect or the level left
[2] = biological target: T2, Glutamate receptor ionotropic, kainate (Rattus norvegicus) (UniProt P22756+Q01812+P42260+P42264+Q63273); test: Antagonistic activity against Ionotropic glutamate receptor kainate at the concentration of 100 uM; set-up: scale not given: the % may be the effect or the level left
[3] = biological target: T3, Glutamate NMDA receptor (Rattus norvegicus) (UniProt P35439+Q00959+Q00960+Q00961+Q62645+Q8VHN2+Q9R1M7); test: Antagonistic activity against 10 uM of N-methyl-D-aspartate glutamate receptor at the concentration of 100 uM; set-up: scale not given: the % may be the effect or the level left
[4] = biological target: T3, Glutamate NMDA receptor (Rattus norvegicus); test: Depression of depolarizing response vs 10 uM N-methyl-D-aspartate glutamate receptor at the concentration of 500 uM; inactive
[5] = biological target: T2, Glutamate receptor ionotropic, kainate (Rattus norvegicus); test: Antagonistic activity against Ionotropic glutamate receptor kainate at the concentration of 200 uM; ns = not significant
[6] = biological target: T1, Glutamate receptor ionotropic, AMPA (Rattus norvegicus); test: Antagonistic activity against 5 uM of quis/AMPA at the concentration of 200 uM; ns = not significant
[7] = biological target: T3, Glutamate NMDA receptor (Rattus norvegicus); test: Antagonistic activity against 10 uM of N-methyl-D-aspartate glutamate receptor at the concentration of 200 uM; set-up: scale not given: the % may be the effect or the level left
[8] = biological target: T3, Glutamate NMDA receptor (Rattus norvegicus); test: Depression of depolarizing response vs 10 uM N-methyl-D-aspartate glutamate receptor at the concentration of 200 uM; inactive
[9] = biological target: T2, Glutamate receptor ionotropic, kainate (Rattus norvegicus); test: Antagonistic activity against Ionotropic glutamate receptor kainate at the concentration of 500 uM; ns = not significant
[10] = biological target: T1, Glutamate receptor ionotropic, AMPA (Rattus norvegicus); test: Antagonistic activity against 5 uM of quis/AMPA at the concentration of 500 uM; ns = not significant
[11] = biological target: T3, Glutamate NMDA receptor (Rattus norvegicus); test: Antagonistic activity against 10 uM of N-methyl-D-aspartate glutamate receptor at the concentration of 500 uM; set-up: scale not given: the % may be the effect or the level left
[12] = biological target: T3, Glutamate NMDA receptor (Rattus norvegicus); test: Depression of depolarizing response vs 10 uM N-methyl-D-aspartate glutamate receptor at the concentration of 500 uM
[13] = biological target: T1, Glutamate receptor ionotropic, AMPA (Rattus norvegicus); test: Antagonistic activity against 5 uM of quis/AMPA at the concentration of 200 uM; set-up: scale not given: the % may be the effect or the level left
[14] = biological target: T2, Glutamate receptor ionotropic, kainate (Rattus norvegicus); test: Antagonistic activity against Ionotropic glutamate receptor kainate at the concentration of 200 uM; set-up: scale not given: the % may be the effect or the level left
[15] = biological target: T3, Glutamate NMDA receptor (Rattus norvegicus); test: Antagonistic activity against 10 uM of N-methyl-D-aspartate glutamate receptor at the concentration of 500 uM; ns = not significant

Row | Compound | Activity [4] | Activity [7] | Activity [9] | Activity [10] | Activity [12] | further results
1 | NC1(C(=O)O)CC(=CP(=O)(O)O)C1 (configuration not stated) | inactive |  |  |  |  | Activity [1]: 30%; Activity [2]: 25%; Activity [3]: 40%
2 | N[C@]1(C(=O)O)C[C@@H](CCCP(=O)(O)O)C1.N[C@]1(C(=O)O)C[C@H](CCCP(=O)(O)O)C1 | inactive |  | inactive | inactive |  | Activity [11]: 50%
3 | N[C@]1(C(=O)O)C[C@@H](CP(=O)(O)O)C1.N[C@]1(C(=O)O)C[C@H](CP(=O)(O)O)C1 | inactive | 40% |  |  |  | Activity [13]: 25%; Activity [14]: 25%

Second part, led by results:

Row | Activity [4] | Activity [7] | Activity [9] | Activity [10] | Activity [12] | Compound | further results
4 |  | 40% |  |  |  | N[C@]1(C(=O)O)C[C@@H](CP(=O)(O)O)C1 | Activity [5]: inactive; Activity [6]: inactive; Activity [8]: inactive
5 |  | 50% |  |  | 0.25 | N[C@]1(C(=O)O)C[C@@H](CC(=O)O)C1 | 
6 |  |  | inactive | inactive | 0.65 | N[C@]1(C(=O)O)C[C@H](CC(=O)O)C1 | Activity [15]: inactive
